Measured values reported in US8134015B2, “Compound inhibiting in vivo phosphorous transport and medicine containing the same” (Kyowa Hakko Kirin Co., Ltd., priority 2003, dated 2012).

Key:
rat NaPi-2b = target: T1, rat NaPi-2b (Rattus norvegicus, UniProt Q9JJ09); experiment: Sodium-dependent phosphate uptake of Xenopus oocytes which expressed NaPi-2b (32P); format: cell-based; conditions: Xenopus oocytes expressing rat NaPi-2b, 32P radioactive phosphorus; read-out: IC50 (phosphate uptake inhibitory activity)
T1 construct: expressed in transfected cells; host or cells: Xenopus oocytes injected with cRNA
T1 sequence (Q9JJ09 1-695): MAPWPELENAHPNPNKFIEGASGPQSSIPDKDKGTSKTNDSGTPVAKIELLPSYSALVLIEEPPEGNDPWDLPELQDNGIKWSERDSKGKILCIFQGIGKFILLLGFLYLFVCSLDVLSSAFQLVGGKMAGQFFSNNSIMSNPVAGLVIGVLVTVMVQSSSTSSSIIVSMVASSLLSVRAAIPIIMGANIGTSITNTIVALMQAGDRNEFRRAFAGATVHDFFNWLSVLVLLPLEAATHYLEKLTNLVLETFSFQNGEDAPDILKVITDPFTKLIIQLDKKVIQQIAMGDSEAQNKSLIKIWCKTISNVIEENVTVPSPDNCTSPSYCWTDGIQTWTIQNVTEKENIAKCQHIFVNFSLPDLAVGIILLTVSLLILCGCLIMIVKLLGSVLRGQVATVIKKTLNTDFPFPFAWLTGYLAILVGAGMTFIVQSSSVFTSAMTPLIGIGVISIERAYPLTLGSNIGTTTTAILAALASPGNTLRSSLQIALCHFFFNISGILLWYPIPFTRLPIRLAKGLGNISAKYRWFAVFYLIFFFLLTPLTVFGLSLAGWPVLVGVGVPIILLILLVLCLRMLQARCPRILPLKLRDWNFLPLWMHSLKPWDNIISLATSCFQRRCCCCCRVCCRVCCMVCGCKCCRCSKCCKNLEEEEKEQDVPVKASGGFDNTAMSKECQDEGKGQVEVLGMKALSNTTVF
In short: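 Steps: rat NaPi-2b cDNA cloned from small intestine; cRNA made and injected into oocytes; 2-day expression; 32P phosphate uptake with compound; % inhibition at 300/100 μM taken from one curve.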

human NaPi-2a = target: T2, human NaPi-2a (Homo sapiens, UniProt Q06495); experiment: Sodium-dependent phosphate uptake of Xenopus oocytes which expressed NaPi-2a (32P); format: cell-based; conditions: phosphate uptake, Xenopus oocytes expressing human NaPi-2a; five concentration levels
T2 construct: expressed in transfected cells
T2 sequence (Q06495 1-639): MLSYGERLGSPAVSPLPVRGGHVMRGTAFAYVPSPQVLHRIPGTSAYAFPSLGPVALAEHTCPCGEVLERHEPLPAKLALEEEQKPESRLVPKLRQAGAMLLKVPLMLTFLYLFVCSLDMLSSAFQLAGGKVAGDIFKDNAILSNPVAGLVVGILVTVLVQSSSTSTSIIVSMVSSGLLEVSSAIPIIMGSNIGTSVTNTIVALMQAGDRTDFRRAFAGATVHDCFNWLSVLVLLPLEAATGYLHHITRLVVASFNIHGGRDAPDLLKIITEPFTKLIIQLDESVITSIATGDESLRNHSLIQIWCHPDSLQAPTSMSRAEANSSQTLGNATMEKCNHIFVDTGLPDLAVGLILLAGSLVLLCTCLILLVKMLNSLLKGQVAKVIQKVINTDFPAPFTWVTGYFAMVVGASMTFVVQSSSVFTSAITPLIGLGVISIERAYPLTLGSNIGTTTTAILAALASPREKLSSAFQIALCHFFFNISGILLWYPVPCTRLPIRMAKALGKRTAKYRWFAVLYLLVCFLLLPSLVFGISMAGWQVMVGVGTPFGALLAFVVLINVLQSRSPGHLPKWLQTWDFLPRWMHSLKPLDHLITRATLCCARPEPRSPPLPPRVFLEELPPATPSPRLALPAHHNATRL
Source text: Experiment of Sodium-Dependent Phosphate Uptake of Xenopus oocytes which Expressed NaPi-2a
In the test, a group with the addition of choline chloride (Choline Cl) was used as a negative control for nonspecific uptake, and PFA (phosphonoformic acid) was used as a positive control for phosphate transport inhibition.

Structure (SMILES)	IC50 (rat NaPi-2b)	IC50 (human NaPi-2a)
O=C(Nc1ccc(N2CCCCC2)cc1C(=O)N/N=C/c1cccc(F)c1)c1cccc(CN2CCc3nc4ncccc4cc3C2)c1 [Compound 896, 3-(7,8-Dihydro-5H-1,6,9-triaza-anthracen-6-ylmethyl)-N-[2-(3-fluoro-benzylidene-hydrazinocarbonyl)-4-piperidin-1-yl-phenyl]-benzamide]	< 300 nM	7400 nM
O=C(Nc1ccc(N2CCCCC2)cc1C(=O)N/N=C/c1ccc(Cl)c(C(F)(F)F)c1)c1cccc(CNCCN(CCO)CCO)c1 [Compound 914, 3-({2-[Bis-(2-hydroxy-ethyl)-amino]-ethylamino}-methyl)-N-[2-(4-chloro-3-trifluoromethyl-benzylidene-hydrazinocarbonyl)-4-piperidin-1-yl-phenyl]-benzamide]	1750 nM	3130 nM
COc1ccc(C(=O)Nc2ccc(N3CCCCC3)cc2C(=O)N/N=C/c2ccc(C)c(C)c2)cc1OC [Compound 935, N-[2-(3,4-Dimethyl-benzylidene-hydrazinocarbonyl)-4-piperidin-1-yl-phenyl]-3,4-dimethoxy-benzamide]	170 nM	9680 nM
COc1ccc(C(=O)Nc2ccc(N3CCCCC3)cc2C(=O)N/N=C/c2cccnc2)cc1OC [Compound 936, 3,4-Dimethoxy-N-[4-piperidin-1-yl-2-(pyridin-3-ylmethylene-hydrazinocarbonyl)-phenyl]-benzamide]	5590 nM	30000 nM
Cc1ccc(/C=N/NC(=O)c2cc(F)ccc2NC(=O)c2cccc(CN(CC(C)O)CC(C)O)c2)cc1C (stereo not drawn) [Compound 985, 3-{[Bis-(2-hydroxy-propyl)-amino]-methyl}-N-[2-(3,4-dimethyl-benzylidene-hydrazinocarbonyl)-4-fluoro-phenyl]-benzamide]	< 3000 nM	< 3000 nM
CC(O)CN(Cc1cccc(C(=O)Nc2ccc(F)cc2C(=O)N/N=C/c2cccc(F)c2)c1)CC(C)O (stereo not drawn) [Compound 987, 3-{[Bis-(2-hydroxy-propyl)-amino]-methyl}-N-[4-fluoro-2-(3-fluoro-benzylidene-hydrazinocarbonyl)-phenyl]-benzamide]	< 3000 nM	16300 nM
Cc1ccc(/C=N/NC(=O)c2cc(F)ccc2NC(=O)c2cccc(CN(CC(C)O)CC(C)O)c2)cc1 (stereo not drawn) [Compound 989, 3-{[Bis-(2-hydroxy-propyl)-amino]-methyl}-N-[4-fluoro-2-(4-methyl-benzylidene-hydrazinocarbonyl)-phenyl]-benzamide]	< 3000 nM	7840 nM
COc1ccc(/C=N/NC(=O)c2cc(F)ccc2NC(=O)c2cccc(CN(CC(C)O)CC(C)O)c2)cc1 (stereo not drawn) [Compound 990, 3-{[Bis-(2-hydroxy-propyl)-amino]-methyl}-N-[4-fluoro-2-(4-methoxy-benzylidene-hydrazinocarbonyl)-phenyl]-benzamide]	< 3000 nM	7140 nM
Cc1ccc(/C=N/NC(=O)c2cc(Cl)ccc2NC(=O)c2cccc(CSCC(O)CO)c2)cc1 (stereo not drawn) [Compound 1008, N-[4-Chloro-2-(4-methyl-benzylidene-hydrazinocarbonyl)-phenyl]-3-(2,3-dihydroxy-propylsulfanylmethyl)-benzamide]	300 nM	2300 nM
Cc1ccc(/C=N/NC(=O)c2cc(Cl)ccc2NC(=O)c2cccc(CSCC(O)CO)c2)cc1C (stereo not drawn) [Compound 1009, N-[4-Chloro-2-(3,4-dimethyl-benzylidene-hydrazinocarbonyl)-phenyl]-3-(2,3-dihydroxy-propylsulfanylmethyl)-benzamide]	100 nM	1410 nM
COc1ccc(NC(=O)c2cccc(CSCC(O)CO)c2)c(C(=O)N/N=C/c2ccc(Cl)c(C(F)(F)F)c2)c1 (stereo not drawn) [Compound 1020, N-[2-(4-Chloro-3-trifluoromethyl-benzylidene-hydrazinocarbonyl)-4-methoxy-phenyl]-3-(2,3-dihydroxy-propylsulfanyl-methyl)-benzamide]	390 nM	2250 nM
CCN(CC)CCN(C)Cc1cccc(C(=O)Nc2ccc(OCCOC)cc2C(=O)N/N=C/c2ccc(Cl)c(C(F)(F)F)c2)c1 [Compound 1027, N-[2-(4-Chloro-3-trifluoromethyl-benzylidene-hydrazinocarbonyl)-4-(2-methoxy-ethoxy)-phenyl]-3-{[(2-diethylamino-ethyl)-methyl-amino]-methyl}-benzamide]	1200 nM	1580 nM

The remaining lines, values ahead:

IC50 (rat NaPi-2b)	IC50 (human NaPi-2a)	Structure (SMILES)
< 1000 nM	< 1000 nM	Cc1ccc(/C=N/NC(=O)c2cc(N3CCCCC3)ccc2NC(=O)c2cccc(CSCC(O)CO)c2)cc1C (stereo not drawn) [Compound 899, 3-(2,3-Dihydroxy-propylsulfanylmethyl)-N-[2-(3,4-dimethyl-benzylidene-hydrazinocarbonyl)-4-piperidin-1-yl-phenyl]-benzamide]
< 1000 nM	2530 nM	Cc1ccc(/C=N/NC(=O)c2cc(N3CCCCC3)ccc2NC(=O)c2cccc(CSCC(O)CO)c2)cc1 (stereo not drawn) [Compound 900, 3-(2,3-Dihydroxy-propylsulfanylmethyl)-N-[2-(4-methyl-benzylidene-hydrazinocarbonyl)-4-piperidin-1-yl-phenyl]-benzamide]
< 1000 nM	< 1000 nM	O=C(Nc1ccc(N2CCCCC2)cc1C(=O)N/N=C/c1ccc(F)cc1)c1cccc(CSCC(O)CO)c1 (stereo not drawn) [Compound 901, 3-(2,3-Dihydroxy-propylsulfanylmethyl)-N-[2-(4-fluoro-benzylidene-hydrazinocarbonyl)-4-piperidin-1-yl-phenyl]-benzamide]
< 1000 nM	< 1000 nM	O=C(Nc1ccc(N2CCCCC2)cc1C(=O)N/N=C/c1cccc(F)c1)c1cccc(CSCC(O)CO)c1 (stereo not drawn) [Compound 902, 3-(2,3-Dihydroxy-propylsulfanylmethyl)-N-[2-(3-fluoro-benzylidene-hydrazinocarbonyl)-4-piperidin-1-yl-phenyl]-benzamide]
< 1000 nM	< 1000 nM	O=C(Nc1ccc(N2CCCCC2)cc1C(=O)N/N=C/c1ccc(Cl)c(C(F)(F)F)c1)c1cccc(CSCC(O)CO)c1 (stereo not drawn) [Compound 903, N-[2-(4-Chloro-3-trifluoromethyl-benzylidene-hydrazinocarbonyl)-4-piperidin-1-yl-phenyl]-3-(2,3-dihydroxy-propyl-sulfanylmethyl)-benzamide]
1710 nM	1690 nM	COc1ccc(/C=N/NC(=O)c2cc(N3CCCCC3)ccc2NC(=O)c2cccc(CSCC(O)CO)c2)cc1 (stereo not drawn) [Compound 904, 3-(2,3-Dihydroxy-propylsulfanylmethyl)-N-[2-(4-methoxy-benzylidene-hydrazinocarbonyl)-4-piperidin-1-yl-phenyl]-benzamide]
